{"source": "paper PMC12517105", "about": "(Toxicology Reports, 2025)", "key": {"ALI-HBECs [1]": {"test_system": "ALI-HBECs", "parameters": "species or system human", "details": "for Fraction of parent metabolites that are M1 / Absorption into cells: optimization dataset", "source_text": "A dosimetry model was developed to contextualize how PAHs interact with ALI-HBECs during exposure (Fig. 1). The model describes the time course dosimetry of two PAHs: […] Model parameters for cell and media compartments were characterized based on measurements for the ALI-HBEC culture system described by […] Technologies (Table 2). […] [28], [67]. We initially modeled parent and metabolite transport among compartments as passive diffusion using ordinary differential equations. […] Consistent with these previous observations, we observed induction of CYP1A1 activity as measured by P450-GloTM (see Results). […] CYP1A1 activity was included as a coefficient of the rate of metabolism for PAH parent which could be triggered by an induction switch. The switch allows for metabolism induction to be turned on or off in future uses of the model. When turned off, the CYP term is set to 1 and the rate of metabolism behaves as described above. […] Parameters were optimized against the optimization UPLC dataset. Parent absorption and metabolism were optimized together against data for BAP in cells. Parent permeability and volatilization were optimized together against data for BAP in media. […] All model parameters and CYP1A1 rational function coefficients were optimized using a maximum log likelihood objective with the Nelder-Mead algorithm and starting values set by visual inspection. The model was built in R version 4.4.2 (R Foundation for Statistical Computing, Vienna, Austria) using the RMagnolia R package version 1.3.15 (https://www.magnoliasci.com/rmagnolia/). The Akaike Information Criterion (AIC) was used for selecting the best model fit for CYP1A1 activity, inclusion of metabolism induction, and inclusion of active efflux. The final model with metabolism induction and active efflux of the metabolite was validated by comparison to data collected in the validation UPLC dataset."}, "[2]": {"assay": "Mass balance experiments: BAP and metabolites in cell, media and mucus fractions by UPLC", "assay_type": "in vitro ADME, human", "details": "human", "experimental": "(§1) Normal HBECs (Lonza, Basel, Switzerland) were expanded to passage 4 in PneumaCult™-Ex Plus medium and transferred to 12-well plates with 12 mm transwell inserts ([…] Technologies, Vancouver, BC, Canada) and 30,000 cells per insert or 24-well plates with 6.5 mm transwell inserts ([…] Technologies, Vancouver, BC, Canada) and 9000 cells per insert for differentiation at the ALI using PneumaCult™-ALI medium. Cells were cultured at the ALI for 25 days at 37°C and 5 % CO2 with media changes every 2–3 days and mucus washes using DPBS on the apical surface once a week starting at 14 days post air-lifting to maintain healthy ALI cultures. Just before exposure, media was changed and ALI-HBECs were apically washed with DPBS or ALI media to remove mucus.\n(§2) Glass pipettes were used for all collection and extraction steps to reduce loss of compound from binding to plastic. ALI media was used instead of DPBS for all rinse and collection steps due to interference with the fluorescence detector. At each timepoint, basal media was collected and the bottom of the insert rinsed, the apical surface was washed and rinses collected, and cells were collected by scraping with a stainless-steel spatula and rinsed from the insert. All collected fractions were flash frozen in liquid nitrogen and stored at −80°C.\n(§3) For Phase 2 metabolite analysis, samples were incubated with β-glucuronidase to deconjugate glucuronide and […] metabolites following methods described by Combie et al.. For cell fractions, 0.1 mm glass beads were added to the sample and placed in a Next Advance Bullet Blender™ 24 (Troy, NY) for 3 min to fully lyse cells and increase recovery. All cell, media, and mucus samples were transferred to amber glass vials and adjusted to pH 5 with acetic acid. β-glucuronidase reconstituted in water was added to samples at 5000 U/mL, and samples were incubated at 65°C for 3 h. Samples were allowed to cool to room temperature before continuing with extractions.\n(§4) All samples were spiked with DBC as an internal standard for a final concentration of 2.5 μM to correct compound recovery for extraction efficiency. Cell fractions not previously incubated with β-glucuronidase were lysed by blending with 0.1 mm glass beads. All cell, media, and mucus samples were transferred to glass vials, vortexed and sonicated in ethyl acetate, and incubated for 2 h at −20°C to precipitate any protein. Samples were centrifuged at 2000 rcf for 10 min, and the ethyl acetate supernatant was collected. This was repeated for a total of three rounds. Ethyl acetate was evaporated to dryness under nitrogen gas, samples were reconstituted in 100 μL ACN, and samples were stored at −80°C.\n(§5) Glucuronide metabolite formation was estimated as the difference between samples incubated with and without β-glucuronidase at similar timepoints."}, "ALI-HBECs [3]": {"test_system": "ALI-HBECs", "assay": "Mass balance experiments: BAP and metabolites in cell, media and mucus fractions by UPLC", "assay_type": "in vitro ADME, human", "experimental": "as §1, §2, §3, §4, §5"}, "CYP1A1 [4]": {"test_system": "CYP1A1", "assay": "RNA-sequencing, differential expression of CYP1A1", "assay_type": "cell-based, human", "details": "24 h, BAP 0.076-3 µg/cm^2, vs vehicle control", "experimental": "(§6) Cells were collected from inserts and lysed with RLT lysis buffer with 1 % β-mercaptoethanol using the RNeasy Mini Kit (Qiagen, Hilden, Germany) and stored at −80 °C. RNA was isolated from cell lysate using the RNeasy Mini Kit per the manufacturer’s protocol and was quantified on a Synergy HTX (BioTek, Winooski, VT, USA) plate reader equipped with a Take3 module (BioTek, Winooski, VT, USA). […] For library construction, mRNA was poly-A selected and libraries were prepared as previously described by Dasgupta et al.. High quality reads with a sequencing length greater than 150 bp were annotated and mapped to the human reference genome GRCh38.p14 using HISAT2, count tables were generated with feature Counts, and differential expression was conducted using the DESeq2 R package version 1.46.0 compared to vehicle control, [64]. In vehicle exposed samples, the fragment per kilobase million (FPKM) was calculated for each gene, and genes with an FPKM > 1 were considered constitutively expressed, [102], [114]. Genes associated with xenobiotic metabolism and transport were identified by pathway enrichment analysis in MetaCore (GeneGo, Thomson Reuters, Carlsbad, CA) and by literature search."}, "[5]": {"test_system": "genes related to xenobiotic metabolism and transport in ALI-HBECs", "assay": "RNA-sequencing, differentially expressed xenobiotic transport and metabolism genes", "assay_type": "cell-based, human", "details": "24 h, by at least one BAP treatment vs vehicle control", "experimental": "as §6"}, "CYP1A1 [6]": {"test_system": "CYP1A1", "assay": "CYP1A1 activity, P450-Glo CYP1A1 Assay in ALI-HBECs", "assay_type": "cell-based, human", "details": "BAP 2.26 µg/cm^2, 0-48 h", "description": "CYP1A1 activity was measured in ALI-HBECs using the P450-Glo™ CYP1A1 Assay System (Promega, Madison, WI). The protocol was adapted to assess CYP1A1 activity in ALI-HBECs. Luciferin-CEE solution was diluted in DPBS, ALI-HBEC basal media was replaced with DPBS, and 50 µL of Luciferin-CEE solution was added to the apical surface. […] Luminescence was recorded on a Synergy HTX plate reader. Cell viability was measured using the CellTiter-Glo® (CTG) Luminescent Cell Viability Assay (Promega, Madison, WI) per manufacturer’s protocol, and luminescence was recorded on a Synergy HTX plate reader. Background luminescence was subtracted from all data, and CYP1A1 activity was normalized to cell viability for each sample."}, "[7]": {"details": "M1 parameter, Active Efflux model"}, "[8]": {"details": "M1 parameter, Active Efflux model, set as parent value"}, "[9]": {"details": "M1 parameter, Passive Diffusion model"}, "[10]": {"details": "M1 parameter, Passive Diffusion model, set as parent value"}, "[11]": {"details": "parent parameter, No Metabolism Induction"}, "[12]": {"details": "parent parameter, With Metabolism Induction"}}, "note": "Where two headings read alike, the source gives them in different places.", "data": [{"smiles": "OC1C=Cc2c(cc3ccc4cccc5ccc2c3c45)C1O", "note": "(centres unmarked) [7,8-dihydrodiol, BAP-7,8-dihydrodiol]", "values": [{"measurement": "Active efflux into media", "setting": "ALI-HBECs [1]; [7]", "value": 0.000869, "unit": "L/h"}, {"measurement": "Active efflux into mucus", "setting": "ALI-HBECs [1]; [7]", "value": 0.000445, "unit": "L/h"}, {"measurement": "Clearance by metabolism", "setting": "ALI-HBECs [1]; [7]", "value": 0.79, "unit": "L/hr/kg^3/4"}, {"measurement": "Fraction of parent metabolites that are M1", "setting": "ALI-HBECs [1]; [7]", "value": 0.099}, {"measurement": "Volatilization from media", "setting": "ALI-HBECs [1]; [8]", "value": 0.00185, "unit": "h⁻¹"}, {"measurement": "Volatilization from mucus", "setting": "ALI-HBECs [1]; [8]", "value": 0.00185, "unit": "h⁻¹"}, {"measurement": "Clearance by metabolism", "setting": "ALI-HBECs [1]; [9]", "value": 3.93, "unit": "L/hr/kg^3/4"}, {"measurement": "Permeability of cells", "setting": "ALI-HBECs [1]; [9]", "value": 16.9, "unit": "×10⁻⁶ cm/s"}, {"measurement": "Fraction of parent metabolites that are M1", "setting": "ALI-HBECs [1]; [9]", "value": 0.022}, {"measurement": "Volatilization from media", "setting": "ALI-HBECs [1]; [10]", "value": 0.00185, "unit": "h⁻¹"}, {"measurement": "Volatilization from mucus", "setting": "ALI-HBECs [1]; [10]", "value": 0.00185, "unit": "h⁻¹"}, {"measurement": "Fraction of M1 formed from parent metabolites", "setting": "ALI-HBECs [1]; model temporarily optimized to the validation set (BAP 4.67 µg/cm^2)", "value": 0.05}]}, {"smiles": "c1ccc2c(c1)cc1ccc3cccc4ccc2c1c34", "note": "[BAP, Benzo[a]pyrene]", "values": [{"measurement": "recovery at 0 h, 2.26 µg/cm^2", "setting": "[2]", "value": 85.2, "unit": "%"}, {"measurement": "recovery at 0 h, 4.67 µg/cm^2", "setting": "[2]", "value": 87.5, "unit": "%"}, {"measurement": "time by which BAP was cleared from cells", "setting": "ALI-HBECs [3]; after exposure", "value": "≤ 48", "unit": "h"}, {"measurement": "time before BAP started releasing into the media fraction", "setting": "ALI-HBECs [3]; optimization dataset", "value": "> 4", "unit": "h"}, {"measurement": "average BAP recovery at 0 h (amount)", "setting": "ALI-HBECs [3]; optimization dataset, BAP 2.26 µg/cm^2", "value": 8.6, "unit": "nmol"}, {"measurement": "average BAP recovery at 0 h (amount)", "setting": "ALI-HBECs [3]; validation dataset, BAP 4.67 µg/cm^2", "value": 16.8, "unit": "nmol"}, {"measurement": "Volatilization from media", "setting": "ALI-HBECs [1]; [11]", "value": 0.00436, "unit": "h⁻¹"}, {"measurement": "Absorption into cells", "setting": "ALI-HBECs [1]; [11]", "value": 0.47, "unit": "h⁻¹"}, {"measurement": "Volatilization from media", "setting": "ALI-HBECs [1]; [12]", "value": 0.00185, "unit": "h⁻¹"}, {"measurement": "Absorption into cells", "setting": "ALI-HBECs [1]; [12]", "value": 0.24, "unit": "h⁻¹"}, {"measurement": "CYP1A1 average induction (mRNA)", "setting": "CYP1A1 [4]", "value": 12.6, "unit": "fold"}, {"measurement": "number of genes related to xenobiotic metabolism significantly differentially expressed", "setting": "[5]", "value": 38, "unit": "genes"}, {"measurement": "number of genes related to xenobiotic transport significantly differentially expressed", "setting": "[5]", "value": 8, "unit": "genes"}, {"measurement": "time of maximum CYP1A1 activity", "setting": "CYP1A1 [6]", "value": 8, "unit": "h"}]}]}
